Assay results taken from the supplement of paper PMC10307832.

What was measured:
Assay in all cases: relative viability (nuclei count vs DMSO), 5 days (fraction); higher = more cells survive
[1] = compound: CN(C)C[C@@H]1CCn2cc(c3ccccc32)C2=C(C(=O)NC2=O)c2cn(c3ccccc23)CCO1 [Ruboxistaurin] + CS(=O)(=O)N1CCN(Cc2cc3nc(-c4cccc5[nH]ncc45)nc(N4CCOCC4)c3s2)CC1 [Pictilisib] (partner 1 µM)
Summary of the method: (§1)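 Lung cancer cell lines in 1536-well plates got either a single drug or a fixed anchor-drug dose together with five library-drug doses (not always all listed) in √10 steps, by pin tool, on the day after seeding. Nuclei were counted after 5 days, and relative viability is the treated-to-vehicle ratio of nuclei counts. Values are medians of duplicate plates.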

[2] = compound: CN(C)C[C@@H]1CCn2cc(c3ccccc32)C2=C(C(=O)NC2=O)c2cn(c3ccccc23)CCO1 [Ruboxistaurin] + CCNC(=O)c1noc(-c2cc(C(C)C)c(O)cc2O)c1-c1ccc(CN2CCOCC2)cc1 [Luminespib] (partner 0.01 µM)
Summary of the method: as §1

[3] = compound: CN(C)C[C@@H]1CCn2cc(c3ccccc32)C2=C(C(=O)NC2=O)c2cn(c3ccccc23)CCO1 [Ruboxistaurin] + N=C(N)NC(=N)NCCc1ccccc1 [Phenformin] (partner 250 µM)
Summary of the method: as §1

[4] = compound: CN(C)C[C@@H]1CCn2cc(c3ccccc32)C2=C(C(=O)NC2=O)c2cn(c3ccccc23)CCO1 [Ruboxistaurin] + C[C@]1(O)C[C@@H](c2nc(-c3ccc4ccc(-c5ccccc5)nc4c3)c3c(N)nccn32)C1 [Linsitinib] (partner 1 µM)
Summary of the method: as §1

[5] = compound: CN(C)C[C@@H]1CCn2cc(c3ccccc32)C2=C(C(=O)NC2=O)c2cn(c3ccccc23)CCO1 [Ruboxistaurin] + C[C@@H](Oc1cc(-c2cnn(C3CCNCC3)c2)cnc1N)c1c(Cl)ccc(F)c1Cl [Crizotinib] (partner 1 µM)
Summary of the method: as §1

Cell Line | relative viability ([1]; first compound 0.08 µM) | relative viability ([1]; first compound 0.8 µM) | relative viability ([1]; first compound 2.53 µM) | relative viability ([1]; first compound 8 µM) | relative viability ([2]; first compound 0.08 µM) | relative viability ([2]; first compound 0.8 µM) | relative viability ([2]; first compound 2.53 µM) | relative viability ([2]; first compound 8 µM) | relative viability ([3]; first compound 0.08 µM) | relative viability ([3]; first compound 0.8 µM) | relative viability ([3]; first compound 2.53 µM) | relative viability ([3]; first compound 8 µM) | relative viability ([4]; first compound 0.08 µM) | relative viability ([4]; first compound 0.8 µM) | relative viability ([4]; first compound 2.53 µM) | relative viability ([4]; first compound 8 µM) | relative viability ([5]; first compound 0.08 µM) | relative viability ([5]; first compound 0.8 µM) | relative viability ([5]; first compound 2.53 µM) | relative viability ([5]; first compound 8 µM)
NCI-H838 | 0.468 | 0.376 | 0.371 | 0.383 | 0.292 | 0.239 | 0.425 | 0.382 | 0.628 | 0.467 | 0.592 | 0.454 | 1.09 | 0.91 | 1.02 | 0.744 | 0.899 | 0.729 | 1.03 | 0.817
NCI-H3122 | 0.7 | 0.398 | 0.564 | 0.436 | 0.0884 | 0.1 | 0.11 | 0.0946 | 0.409 | 0.372 | 0.413 | 0.379 | 1.03 | 0.978 | 1.03 | 1.01 | 0.28 | 0.211 | 0.298 | 0.225
SK-MES-1 | 0.417 | 0.3 | 0.323 | 0.316 | 0.928 | 0.65 | 0.859 | 0.363 | 0.678 | 0.607 | 0.658 | 0.639 | 1.08 | 1 | 1.02 | 0.996 | 1.06 | 1.03 | 0.979 | 0.972
NCI-H1944 | 0.332 | 0.279 | 0.354 | 0.31 | 0.406 | 0.632 | 0.72 | 0.726 | 0.213 | 0.183 | 0.179 | 0.186 | 1.23 | 1.1 | 1.12 | 1.01 | 1.15 | 1.01 | 1.06 | 1.03
LK-2 | 0.595 | 0.52 | 0.652 | 0.303 | 0.22 | 0.182 | 0.154 | 0.172 | 0.476 | 0.38 | 0.379 | 0.225 | 0.493 | 0.589 | 0.717 | 0.261 | 0.249 | 0.242 | 0.278 | 0.257
PC-3 [JPC-3] | 0.883 | 0.678 | 0.742 | 0.814 | 0.703 | 0.649 | 0.75 | 0.757 | 0.471 | 0.47 | 0.492 | 0.517 | 0.974 | 0.91 | 0.915 | 1 | 1.03 | 0.958 | 1 | 1.02
COR-L23 | 0.802 | 0.688 | 0.676 | 0.59 | 0.799 | 0.55 | 0.714 | 0.632 | 0.408 | 0.41 | 0.519 | 0.493 | 0.928 | 0.815 | 1.03 | 0.851 | 0.725 | 0.621 | 0.689 | 0.777
NCI-H1355 | 0.473 | 0.364 | 0.309 | 0.276 | 0.734 | 0.592 | 0.788 | 0.534 | 0.472 | 0.39 | 0.468 | 0.451 | 0.904 | 0.753 | 0.728 | 0.658 | 1.08 | 1 | 1.04 | 1
NCI-H460 | 0.378 | 0.256 | 0.371 | 0.325 | 0.0344 | 0.0361 | 0.0325 | 0.0312 | 0.535 | 0.497 | 0.533 | 0.485 | 0.919 | 0.6 | 0.855 | 0.349 | 0.772 | 0.822 | 1.02 | 0.537
NCI-H1993 | 0.828 | 0.742 | 0.763 | 0.697 | 1.06 | 0.599 | 0.926 | 0.887 | 0.529 | 0.518 | 0.525 | 0.568 | 0.63 | 0.695 | 0.62 | 0.703 | 0.88 | 0.726 | 0.944 | 0.708
ChaGo-K-1 | 1.23 | 0.758 | 0.655 | 0.424 | 0.63 | 0.558 | 0.76 | 0.529 | 0.47 | 0.525 | 0.532 | 0.412 |  |  |  |  | 1.21 | 1.05 | 1.11 | 1.2
HCC-15 | 0.774 | 0.689 | 0.558 | 0.662 | 0.278 | 0.329 | 0.32 | 0.716 | 0.513 | 0.46 | 0.486 | 0.504 | 0.841 | 0.834 | 0.852 | 0.776 | 0.815 | 0.794 | 0.754 | 0.845
NCI-H23 | 0.428 | 0.374 | 0.392 | 0.38 | 0.23 | 0.213 | 0.225 | 0.2 | 0.766 | 0.781 | 0.819 | 0.852 | 0.627 | 0.402 | 0.544 | 0.484 | 0.542 | 0.395 | 0.552 | 0.533
NCI-H1395 | 0.635 | 0.611 | 0.713 | 0.518 | 0.918 | 0.66 | 0.769 | 0.488 | 0.502 | 0.415 | 0.525 | 0.498 | 1.22 | 1.02 | 1.26 | 1.08 |  |  |  | 
NCI-H1666 | 0.413 | 0.355 | 0.474 | 0.421 | 1.03 | 0.964 | 1.03 | 1.08 | 0.598 | 0.533 | 0.583 | 0.584 | 0.951 | 0.691 | 0.964 | 0.565 | 0.941 | 0.88 | 1.09 | 0.733
NCI-H2405 | 0.561 | 0.411 | 0.478 | 0.33 | 0.818 | 0.606 | 0.804 | 0.699 | 0.427 | 0.391 | 0.414 | 0.38 | 1.01 | 0.866 | 1.01 | 0.902 | 0.901 | 0.823 | 0.838 | 0.874
